Measured values taken from paper PMC7396987, “Biological Activity of Pseudovitamin B12 on Cobalamin-Dependent Methylmalonyl-CoA Mutase and Methionine Synthase in Mammalian Cultured COS-7 Cells” (Molecules, 2020).
pKd: −log10 of the molar value.

Target: T1, human MS (hMS; recombinant FLAG-tagged methionine synthase) (Homo sapiens, UniProt Q99707)
T1 construct: gene MTR; full-length ORF from human brain cerebral cortex cDNA in p3xFLAG-Myc-CMV (p3xFLAG-hMS), N-terminal 3xFLAG tag kept; expressed in COS-7 cells, apoenzyme in cell homogenate (low endogenous monkey MS background)
T1 sequence (Q99707 2-1265 limits assumed): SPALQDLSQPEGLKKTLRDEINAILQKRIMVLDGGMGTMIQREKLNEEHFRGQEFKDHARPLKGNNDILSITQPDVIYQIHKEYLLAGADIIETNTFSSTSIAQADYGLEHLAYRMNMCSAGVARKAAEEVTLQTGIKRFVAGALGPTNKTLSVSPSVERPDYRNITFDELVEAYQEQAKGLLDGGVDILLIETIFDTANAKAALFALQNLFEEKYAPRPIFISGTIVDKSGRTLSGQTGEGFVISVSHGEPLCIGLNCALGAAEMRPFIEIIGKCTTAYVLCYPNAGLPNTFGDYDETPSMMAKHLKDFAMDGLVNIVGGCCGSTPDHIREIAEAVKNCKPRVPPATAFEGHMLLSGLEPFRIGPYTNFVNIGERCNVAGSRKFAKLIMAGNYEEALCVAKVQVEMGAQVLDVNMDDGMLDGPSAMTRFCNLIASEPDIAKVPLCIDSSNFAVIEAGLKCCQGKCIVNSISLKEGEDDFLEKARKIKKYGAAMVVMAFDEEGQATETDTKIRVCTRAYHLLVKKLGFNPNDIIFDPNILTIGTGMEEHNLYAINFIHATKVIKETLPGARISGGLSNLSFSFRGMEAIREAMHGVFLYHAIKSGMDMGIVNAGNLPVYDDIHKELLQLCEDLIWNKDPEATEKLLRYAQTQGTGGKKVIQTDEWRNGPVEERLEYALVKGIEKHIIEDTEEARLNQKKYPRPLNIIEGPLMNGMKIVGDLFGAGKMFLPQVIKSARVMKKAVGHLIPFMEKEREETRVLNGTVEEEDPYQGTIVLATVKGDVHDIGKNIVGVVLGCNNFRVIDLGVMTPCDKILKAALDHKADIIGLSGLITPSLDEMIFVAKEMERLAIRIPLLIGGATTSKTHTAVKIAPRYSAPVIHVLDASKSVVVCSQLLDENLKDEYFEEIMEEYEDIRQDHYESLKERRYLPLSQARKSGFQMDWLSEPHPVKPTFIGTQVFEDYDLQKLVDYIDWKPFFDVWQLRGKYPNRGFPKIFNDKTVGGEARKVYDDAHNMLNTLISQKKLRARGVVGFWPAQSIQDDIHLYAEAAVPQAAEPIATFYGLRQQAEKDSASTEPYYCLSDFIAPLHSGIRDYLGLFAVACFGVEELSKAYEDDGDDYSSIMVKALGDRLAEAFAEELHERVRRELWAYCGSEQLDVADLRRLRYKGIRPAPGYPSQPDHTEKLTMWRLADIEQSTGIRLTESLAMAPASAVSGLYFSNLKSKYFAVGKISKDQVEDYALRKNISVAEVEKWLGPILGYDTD
Experiment: activation of apo-MS in cell homogenate, HPLC activity assay, saturation fit
Assay type: biochemical
Conditions: cobalamin reduced by titanium citrate; substrate 5-methyltetrahydrofolate; homogenate of MS cDNA-transfected COS-7 cells grown without OH-Cbl; read-out: apparent Kd

(Ade)OH-Cba [compound 6] was tested. Which pKd did it give?
The pKd was about 4.58.
